Assay results: US12195424B2, “Antibiotic compounds” (The General Hospital Corporation, priority 2017, dated 2025)

Assays:
Maximum tolerated dose = type: in vivo; conditions: mice
Protocol: Maximum tolerated dose. Six-week-old female CD1 ICR outbred mice (20-25 g) were obtained from Charles River Laboratories (Wilmington, MA, USA). Analog 2 was dissolved in a 1:1 solution of Kolliphor EL (Sigma-Aldrich, St Louis, MO, USA) and ethanol and then diluted 1:10 in saline to a final concentration of 4 mg/ml. Groups of mice (n=6) were treated with 10, 20, 40, 80 mg/kg Analog 2 i.p. or vancomycin (25 mg/kg) every 12 h for 3 days. Control mice were injected with 400 μl of 10% Kolliphor EL/ethanol in saline i.p. every 12 h for 3 days. Mice were closely monitored until they were euthanized at 72 h from the first infection. After euthanizing mice, blood was collected by cardiac puncture. All samples were stored at 4° C. until for analysis. Serum was analyzed for alanine aminotransferase and urea nitrogen content with commercially available kits, following the manufacturer's protocol (Pointe Scientific, Canton, MI, USA). No statistical methods were used to predetermine samples size. The experiments were not randomized, and investigators were not blinded to allocation during experiments and outcome assessment. This study and all experimental protocols were approved by the Rhode Island Hospital Institutional Animal Care and Use Committee (RIH IACUC) and conducted in accordance with the Animal Welfare Act and National Institutes of Health guidelines for animal care and use. Statistical significance among each group was analyzed by one-way ANOVA with post-hoc Tukey test using PASW Statistics 18 (SPSS Inc. Chicago, IL, USA) and GraphPad Prism 7 (GraphPad Software, La Jolla, CA, USA).

MRSA MW2 persisters = assay: Persister killing assay; type: cell-based, S. aureus; conditions: MRSA persisters, in words
Protocol: Persister killing assay. […] Persistency of stationary-phase S. aureus VRS1 was evaluated by treating with 100×MIC daptomycin and 100×MIC linezolid, because the strain is resistant to vancomycin, gentamicin, ciprofloxacin, and rifampicin. We prepared persister cells of the 13 S. aureus strains by growing cultures overnight to stationary phase at 37° C. at 225 rpm. The overnight cultures were washed three times with PBS and diluted to ˜5×10^7 ? CFU/ml with the same buffer. 2 ml of the persister suspension containing appropriate concentrations of antibiotics was added to the wells of a 96-well assay block (Corning Costar 3960) and incubated at 37° C., with shaking at 225 rpm. At specific times, 400 μl samples were removed and washed once with PBS to remove the antibiotic. The samples were serially diluted 10^5 fold with PBS and spot-plated onto TSA plates. After incubating the plates overnight (˜18 h) at 37° C., the colonies were counted to enumerate the number of cells. These experiments were conducted in triplicate.

S. aureus MW2 = assay: Deep-seated mouse thigh infection model; type: in vivo, mice; conditions: every 12 h for 3 days, p<0.001
Protocol: Deep-seated mouse thigh infection model for evaluating drug efficacy. A previously described protocol to mimic a chronic, deep-tissue infection was used with modifications. Six-week-old female CD1 ICR outbred mice (20-25 g) were obtained from Charles River Laboratories (Wilmington, MA, USA). To make mice neutropenic, 150 mg/kg and 100 mg/kg of cyclophosphamide were administered via i.p. injection at 4 days and 1 day before infection, respectively. On the day of infection, ˜10^5 cells of stationary-phase S. aureus MW2 suspended in 50 μl of saline were injected to the right thigh of each mouse. To test the efficacy of CD437, the compound was dissolved in a 1:1 solution of Kolliphor EL (Sigma-Aldrich, St Louis, MO, USA) and ethanol and then diluted 1:10 in saline to a final concentration of […]. […] At 24 h post-infection, groups of mice (n=10) were treated with 30 mg/kg gentamicin subcutaneously (s.c.), 25 mg/kg vancomycin i.p., 20 mg/kg CD437 i.p., or a combination of 20 mg/kg CD437 i.p. and 30 mg/kg gentamicin s.c. every 12 h for 3 days. Control mice were injected with 200 μl of 10% Kolliphor EL/ethanol in saline i.p. every 12 h for 3 days. For testing the efficacy of Analog 2, the compound was dissolved in a 1:1 solution of Kolliphor EL (Sigma-Aldrich, St Louis, MO, USA) and ethanol and then diluted 1:10 in saline to a final concentration of 4 mg/ml. […] Serum was analyzed for alanine aminotransferase and urea nitrogen content with commercially available kits, following the manufacturer's protocol (Pointe Scientific, Canton, MI, USA). […] The bacterial burden was recorded as CFU/g tissue. A sample size of 10 mice per group was calculated for a single-tailed power analysis using a standard deviation based on our historical data and the literature in consultation with the Rhode Island Hospital Biostatistics Core. […] Statistical significance among each group was analyzed by one-way ANOVA with post-hoc Tukey test using PASW Statistics 18 (SPSS Inc. Chicago, IL, USA) and GraphPad Prism 7 (GraphPad Software, La Jolla, CA, USA).

[1] = every 12 h for 3 days, Analog 2 10-80 mg/kg i.p., vancomycin 25 mg/kg i.p., P>0.7

Question: Which results are given for `OCc1ccc2cc(-c3ccc(O)c(C45CC6CC(CC(C6)C4)C5)c3)ccc2c1` [Analog 2, 2-(adamantan-1-yl)-4-(6-(hydroxymethyl)naphthalen-2-yl)phenol]?
Answer: alanine aminotransferase (ALT) vs. control (Maximum tolerated dose; [1]): lack of significant differences; blood urea nitrogen (BUN) vs. control (Maximum tolerated dose; [1]): lack of significant differences; hepatic or renal toxicity (Maximum tolerated dose; up to 80 mg/kg i.p. (highest tested dose) every 12 h for 3 days): no detectable; anti-persister activity (MRSA MW2 persisters): retained bacterial activity against MRSA persisters; decrease in bacterial burden (S. aureus MW2; 40 mg/kg i.p. in combination with 30 mg/kg gentamicin s.c.): ~1 log; decrease in bacterial burden (S. aureus MW2; 80 mg/kg i.p. alone): ~1 log; decrease in bacterial burden (S. aureus MW2; 80 mg/kg i.p. in combination with 30 mg/kg gentamicin s.c.): ~2 log
